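Protocol summary: plate cells (96-well), add compound at 5 concentrations, incubate 48 h, interpolate endpoints linearly. GI50: concentration for 50% inhibition of growth. TGI: total growth inhibition.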 Bounds are passed on as bounds.

The results in this text go back to PubChem BioAssay (NCI).

What all share (assay): growth of human tumour cells (NCI), 48 h
Experiment [1] deals with CCRF-CEM leukemia.
Experiment [2] concerns NCI-H522 lung.
Experiment [3] relates to NCI/ADR-RES ovarian.
Experiment [4] concerns PC-3 prostate.
In experiment [5] the test system is RPMI-8226 leukemia.
Experiment [6] has as its system SF-295 CNS.
Experiment [7] concerns SK-OV-3 ovarian.
Experiment [8] has as its system SN12C renal.
Experiment [9] deals with SW-620 colon.
For experiment [10], the system named is UACC-62 melanoma.

Regarding `O=C(O)c1ccc(S(=O)(=O)N=Nc2c(O)[nH]c3ccccc23)cc1`, the TGI in experiment [1], in [2], in [3], in experiment [4], in experiment [5] and in experiment [6] was more than 100 µM each time. Also, the TGI in [7], in [8], in [9] and in [10] was more than 100 µM in each case.
For the molecule `C=CC[Se]C(=O)Cc1c(C)n(C(=O)c2ccc(Cl)cc2)c2ccc(OC)cc12`, the GI50 in experiment [1] was 2580 nM; in experiment [2] it was 1970 nM; in [3] it was 1940 nM; in experiment [4], 1260 nM; in experiment [5], 2280 nM; in experiment [6], 334 nM. Also, the GI50 was 1.63 µM in experiment [7], 1680 nM in [8], 1990 nM in [9] and 1740 nM in experiment [10]. For the same molecule, the TGI in experiment [1] was 7.64 µM; in experiment [2] it was 4.63 µM; in experiment [3] it was 3.89 µM; in experiment [4], 2.8 µM; in experiment [5] it was 5.86 µM; in experiment [6], 1.45 µM. Also, the TGI was 3.1 µM in [7], 3.05 µM in experiment [8], 4.42 µM in [9] and 3.18 µM in [10].
Regarding `CCCCCCNC(=O)Oc1ccc(/C(=C(\C)c2ccccc2)c2ccc(OCCN3CCCCC3)cc2)cc1`, the GI50 was 3050 nM in experiment [1]; 1910 nM in experiment [2]; 3120 nM in [3]; 2580 nM in [4]; 2380 nM in experiment [5]; 1740 nM in experiment [6]. For the same molecule, the GI50 in [7] was 5.05 µM; in [8], 1700 nM; in [9], 2160 nM; in experiment [10], 3630 nM. Besides, the TGI stood at 17.2 µM in experiment [1]; 4.07 µM in [2]; 12.7 µM in [3]; 11.5 µM in experiment [4]; 5.57 µM in experiment [5]; 3.5 µM in experiment [6]. For the same molecule, the TGI in [7] is 19.3 µM; in experiment [8], 3.4 µM; in [9] it was 5.66 µM; in experiment [10], 12.5 µM.
